Values joined by “and” are separate entries in the source; they are usually repeats but may differ in a detail not shown here. Equal entries are not always repeated.
What was measured:
Settings in all cases: treatment: drug + dasatinib (fixed dose, not stated); 5 days
A498 [1] = assay: AUC of dose-response viability curve, drug + dasatinib, normalised to DMSO (arbitrary (AUC of normalised viability)); higher = less growth inhibition
Method: (§1)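 Primary HTS combination arm: 8 RCC cell lines treated with 8 doses (up to 10 uM) of each library drug plus a fixed dose of dasatinib (dose not stated) for 5 days; viability read by CellTiter-Glo and normalised to DMSO. GI50 was fitted with XLfit, AUC is the area under the dose-response curve, and minimum viability is the lowest fraction of DMSO viability across doses.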

SN12C [2] = assay: as above
Method: as §1

786-O [3] = assay: as above
Method: as §1

UO-31 [4] = assay: as above
Method: as §1

769-P [5] = assay: as above
Method: as §1

ACHN [6] = assay: as above
Method: as §1

TK-10 [7] = assay: as above
Method: as §1

CAKI-1 [8] = assay: as above
Method: as §1

A498 [9] = assay: GI50 of drug in presence of dasatinib; higher = less potent
Method: as §1

SN12C [10] = assay: as above
Method: as §1

786-O [11] = assay: as above
Method: as §1

UO-31 [12] = assay: as above
Method: as §1

769-P [13] = assay: as above
Method: as §1

ACHN [14] = assay: as above
Method: as §1

TK-10 [15] = assay: as above
Method: as §1

A498 [16] = assay: minimum viability across doses, drug + dasatinib, relative to DMSO (fraction); higher = less growth inhibition
Method: as §1

SN12C [17] = assay: as above
Method: as §1

786-O [18] = assay: as above
Method: as §1

UO-31 [19] = assay: as above
Method: as §1

769-P [20] = assay: as above
Method: as §1

ACHN [21] = assay: as above
Method: as §1

TK-10 [22] = assay: as above
Method: as §1

CAKI-1 [23] = assay: as above
Method: as §1

CAKI-1 [24] = assay: GI50 of drug in presence of dasatinib; higher = less potent
Method: as §1

SMILES	AUC of dose-response viability curve (A498 [1])	AUC of dose-response viability curve (SN12C [2])	AUC of dose-response viability curve (786-O [3])	AUC of dose-response viability curve (UO-31 [4])	AUC of dose-response viability curve (769-P [5])	AUC of dose-response viability curve (ACHN [6])	AUC of dose-response viability curve (TK-10 [7])	AUC of dose-response viability curve (CAKI-1 [8])	GI50 of drug (A498 [9])	GI50 of drug (SN12C [10])	GI50 of drug (786-O [11])	GI50 of drug (UO-31 [12])	GI50 of drug (769-P [13])	GI50 of drug (ACHN [14])	GI50 of drug (TK-10 [15])	minimum viability across doses (A498 [16])	minimum viability across doses (SN12C [17])	minimum viability across doses (786-O [18])	minimum viability across doses (UO-31 [19])	minimum viability across doses (769-P [20])	minimum viability across doses (ACHN [21])	minimum viability across doses (TK-10 [22])	minimum viability across doses (CAKI-1 [23])	GI50 of drug (CAKI-1 [24])
CCOc1ccn(-c2ccc(F)cc2)c(=O)c1C(=O)Nc1ccc(Oc2ccnc(N)c2Cl)c(F)c1 + Cc1nc(Nc2ncc(C(=O)Nc3c(C)cccc3Cl)s2)cc(N2CCN(CCO)CC2)n1 [dasatinib]	2.83	2.27	1.85	3.54	2.36	1.66	2.43	1.92	> 10000 nM	> 10000 nM	1570 nM	> 10000 nM	> 10000 nM	642 nM	> 10000 nM	0.61	0.528	0.35	0.695	0.495	0.247	0.634	0.118	–
CC(=O)Nc1cccc(-n2c(=O)n(C3CC3)c(=O)c3c(Nc4ccc(I)cc4F)n(C)c(=O)c(C)c32)c1 + Cc1nc(Nc2ncc(C(=O)Nc3c(C)cccc3Cl)s2)cc(N2CCN(CCO)CC2)n1 [dasatinib]	1.96	1.58	1.48	1.88	1.68	1.2	1.58	1.29	–	86.2 nM	21.7 nM	159 nM	217 nM	8.4 nM	78.7 nM	0.306	0.243	0.321	0.0585	0.196	0.216	0.235	0.0991	54.2 nM
Cc1cnc(Nc2ccc(N3CCN(C)CC3)cc2)nc1Nc1cccc(S(=O)(=O)NC(C)(C)C)c1 + Cc1nc(Nc2ncc(C(=O)Nc3c(C)cccc3Cl)s2)cc(N2CCN(CCO)CC2)n1 [dasatinib]	3.36 and 2.9	1.85 and 1.91	1.88 and 1.72	3.14 and 3	1.99 and 2	1.25 and 1.24	1.73 and 1.65	1.56 and 1.46	4270 nM and 3210 nM	746 nM and 690 nM	497 nM and 187 nM	903 nM and 821 nM	878 nM and 719 nM	79.9 nM and 106 nM	336 nM and 309 nM	0.176 and 0.14	–	0.0113 and 0.0115	0.0085 and 0.0129	0.0284 and 0.0197	0.00194 and 0.00321	0.00138 and 0.00232	0.00497 and 0.00392	271 nM and 152 nM
O=C(NC[C@H](O)CO)c1ccncc1Nc1ccc(I)cc1F + Cc1nc(Nc2ncc(C(=O)Nc3c(C)cccc3Cl)s2)cc(N2CCN(CCO)CC2)n1 [dasatinib]	2.28	1.9	1.87	2.33	1.81	1.28	1.9	1.52	–	307 nM	89.8 nM	563 nM	455 nM	10.5 nM	296 nM	0.31	0.227	0.394	0.0714	0.212	0.216	0.203	0.0863	139 nM
Cc1ccc(C(=O)Nc2ccc(CN3CCN(C)CC3)c(C(F)(F)F)c2)cc1C#Cc1cnc2cccnn12 + Cc1nc(Nc2ncc(C(=O)Nc3c(C)cccc3Cl)s2)cc(N2CCN(CCO)CC2)n1 [dasatinib]	–	–	–	–	–	–	–	–	935 nM	230 nM	402 nM	311 nM	624 nM	68.8 nM	390 nM	–	–	–	–	–	–	–	–	127 nM
C[C@@H](Oc1cc(-n2cnc3ccc(CN4CCN(C)CC4)cc32)sc1C(N)=O)c1ccccc1C(F)(F)F + Cc1nc(Nc2ncc(C(=O)Nc3c(C)cccc3Cl)s2)cc(N2CCN(CCO)CC2)n1 [dasatinib]	1.97	1.62	0.653	1.32	1.14	1.22	2.01	1.33	–	89.1 nM	10.7 nM	77.4 nM	31 nM	21.2 nM	265 nM	0.384	0.155	0.00468	0.00496	0.0347	0.0897	0.171	0.0912	38.1 nM
Cn1cnc2c(F)c(Nc3ccc(Br)cc3Cl)c(C(=O)NOCCO)cc21 [AZD6244 (Selumetinib)] + Cc1nc(Nc2ncc(C(=O)Nc3c(C)cccc3Cl)s2)cc(N2CCN(CCO)CC2)n1 [dasatinib]	2.11	1.84	2.26	2.32	2.1	1.64	2.38	1.77	–	1070 nM	1660 nM	–	1200 nM	83.2 nM	3540 nM	0.301	0.0911	0.507	0.143	0.294	0.343	0.477	0.129	646 nM
Cc1cc(C(=O)NOCCO)c(Nc2ccc(I)cc2F)n(C)c1=O [AZD8330] + Cc1nc(Nc2ncc(C(=O)Nc3c(C)cccc3Cl)s2)cc(N2CCN(CCO)CC2)n1 [dasatinib]	1.77	1.5	1.67	1.9	1.49	0.912	1.64	1.21	–	60.1 nM	54.5 nM	–	69.4 nM	< 3 nM	108 nM	0.318	0.212	0.323	0.0965	0.219	0.18	0.262	0.102	56.5 nM
COc1cc(Nc2c(C#N)cnc3cc(OCCCN4CCN(C)CC4)c(OC)cc23)c(Cl)cc1Cl [Bosutinib (SKI-606)] + Cc1nc(Nc2ncc(C(=O)Nc3c(C)cccc3Cl)s2)cc(N2CCN(CCO)CC2)n1 [dasatinib]	2.84	2.24	2.37	2.22	2.03	1.45	2.26	1.85	3350 nM	1330 nM	2190 nM	–	1070 nM	56.8 nM	1020 nM	0.294	0.199	0.0253	0.0097	0.105	0.103	0.0934	0.0492	501 nM
COc1cc(Nc2ncc3c(n2)-c2ccc(Cl)cc2C(c2c(F)cccc2OC)=NC3)ccc1C(=O)O [MLN8237 (Alisertib)] + Cc1nc(Nc2ncc(C(=O)Nc3c(C)cccc3Cl)s2)cc(N2CCN(CCO)CC2)n1 [dasatinib]	2.41	1.89	1.44	3.06	1.61	1.37	2.39	1.41	–	331 nM	60.2 nM	5320 nM	95.7 nM	25 nM	2740 nM	0.353	0.353	0.145	0.374	0.231	0.16	0.392	0.0592	74.9 nM
CCOc1cc2ncc(C#N)c(Nc3ccc(OCc4ccccn4)c(Cl)c3)c2cc1NC(=O)/C=C/CN(C)C [Neratinib (HKI-272)] + Cc1nc(Nc2ncc(C(=O)Nc3c(C)cccc3Cl)s2)cc(N2CCN(CCO)CC2)n1 [dasatinib]	3.02	1.74	1.88	2.08	1.59	0.82	1.57	1.44	6990 nM	215 nM	611 nM	–	102 nM	4.66 nM	74.2 nM	0.51	0.0625	0.298	0.0167	0.0611	0.0762	0.228	0.0888	114 nM
CS(=O)(=O)O.O=C(Nc1cccc(Cl)c1)Nc1ncc(CCNc2ncnc3ccsc23)s1 [SNS-314] + Cc1nc(Nc2ncc(C(=O)Nc3c(C)cccc3Cl)s2)cc(N2CCN(CCO)CC2)n1 [dasatinib]	2.61	1.97	1.54	3.06	1.74	1.48	2.41	1.38	–	634 nM	48.1 nM	6020 nM	155 nM	61.8 nM	3780 nM	0.442	0.259	0.123	0.372	0.217	0.144	0.362	0.107	41.5 nM
Cn1c(=O)c(F)c(Nc2ccc(I)cc2F)c2c(=O)n(C[C@@H](O)CO)cnc21 [TAK-733] + Cc1nc(Nc2ncc(C(=O)Nc3c(C)cccc3Cl)s2)cc(N2CCN(CCO)CC2)n1 [dasatinib]	1.92	1.51	1.96	1.88	1.73	1.21	1.71	1.2	–	82.5 nM	452 nM	200 nM	192 nM	< 3 nM	138 nM	0.355	0.192	0.36	0.0313	0.201	0.222	0.199	0.0816	29.7 nM
CCC(=O)N1CCN(c2ccc(-n3c(=O)ccc4cnc5ccc(-c6cnc7ccccc7c6)cc5c43)cc2C(F)(F)F)CC1 [Torin 1] + Cc1nc(Nc2ncc(C(=O)Nc3c(C)cccc3Cl)s2)cc(N2CCN(CCO)CC2)n1 [dasatinib]	1.53	1.16	0.988	1.5	1.06	0.722	1.13	0.983	73.9 nM	26.6 nM	17.4 nM	77 nM	21.8 nM	4.88 nM	–	0.025	0.0936	0.0106	0.00689	0.0737	0.0484	0.0693	0.0196	27.7 nM
Nc1ccc(-c2ccc3ncc4ccc(=O)n(-c5cccc(C(F)(F)F)c5)c4c3c2)cn1 [Torin 2] + Cc1nc(Nc2ncc(C(=O)Nc3c(C)cccc3Cl)s2)cc(N2CCN(CCO)CC2)n1 [dasatinib]	0.961	0.777	0.422	0.727	0.828	0.382	0.828	0.756	22.6 nM	6.44 nM	< 3 nM	14.9 nM	11.2 nM	< 3 nM	–	0.0422	0.0283	0.00374	0.00805	0.0396	0.033	0.0129	0.00828	12.3 nM
